From patent US8071586B2, “Heterocyclyl compounds” (Hoffmann-La Roche Inc., priority 2008, dated 2011)

Molecular target: T1, human chemokine receptor 2 isoform B (CCR2) (Homo sapiens, UniProt P41597)
T1 sequence (P41597 1-360 isoform P41597-2): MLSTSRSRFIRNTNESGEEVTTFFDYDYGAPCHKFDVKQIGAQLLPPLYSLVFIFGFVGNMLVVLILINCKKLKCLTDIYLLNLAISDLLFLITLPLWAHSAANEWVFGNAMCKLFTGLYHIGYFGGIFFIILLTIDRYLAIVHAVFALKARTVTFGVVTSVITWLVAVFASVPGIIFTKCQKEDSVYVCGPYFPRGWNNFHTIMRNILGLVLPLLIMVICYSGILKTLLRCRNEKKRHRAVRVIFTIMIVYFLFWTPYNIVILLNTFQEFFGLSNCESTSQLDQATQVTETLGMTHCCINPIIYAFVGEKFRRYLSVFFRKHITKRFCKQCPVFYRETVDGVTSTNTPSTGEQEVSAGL
Assay: Calcium mobilization assay (FLIPR, MCP-1 stimulated CHOK1-CCR2B-A5 cells)
Type: cell-based
Details: Ca mobilisation assay, CCR2 antagonist activity, inhibition of MCP-1 induced calcium increase
How it was run: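 Fluo-4-loaded CHOK1 cells stably expressing human CCR2B were preincubated with compound 20-30 min at 30 °C in DMEM/Hepes/probenecid/0.1% BSA buffer with 0.5% DMSO, then challenged with […] MCP-1. FLIPR calcium signal (max minus basal) gave IC50; agonism also monitored.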

COC(=O)C(CCN1CCC2(CC2)[C@H](O)C1)N1CCN(C(=O)Nc2cccc(Cl)c2)CCC1=O (stereo partly drawn) [Example 1, (R,S)-2-[4-(3-Chloro-phenylcarbamoyl)-7-oxo-[1,4]diazepan-1-yl]-4-((S)-4-hydroxy-6-aza-spiro[2.5]oct-6-yl)-butyric acid methyl ester]
IC50: 470 nM

COc1ccc(C(=O)OC[C@H](CCN2CCC3(CC3)[C@H](O)C2)N2CCN(C(=O)Nc3ccc(Cl)c(Cl)c3)[C@@H](C)C2=O)cc1 [Example 119, 4-Methoxy-benzoic acid (S)-2-[(S)-4-(3,4-dichloro-phenylcarbamoyl)-3-methyl-2-oxo-piperazin-1-yl]-4-((S)-4-hydroxy-6-aza-spiro[2.5]oct-6-yl)-butyl ester]
IC50: 4 nM

C[C@@H]1CN(CCCN2CCCCC2)C(=O)CCN1C(=O)Nc1ccc(Cl)c(Cl)c1 [Example 25, (R)-2-Methyl-5-oxo-4-(3-piperidin-1-yl-propyl)-[1,4]diazepane-1-carboxylic acid (3,4-dichloro-phenyl)-amide]
IC50: 380 nM

COCC(CCN1CCC2(CC2)[C@H](O)C1)N1CC(C)N(C(=O)Nc2cccc(Cl)c2)CCC1=O (stereo in doubt) [Example 65, (R)-4-[(S)-3-((S)-4-Hydroxy-6-aza-spiro[2.5]oct-6-yl)-1-methoxymethyl-propyl]-2-methyl-5-oxo-[1,4]diazepane-1-carboxylic acid (3-chloro-phenyl)-amide]
IC50: 21 nM

C[C@H]1C(=O)N(CCCCN2CCC3(CC3)[C@H](O)C2)CCN1C(=O)Nc1cccc(-c2cccnc2)c1 [Example 94, (S)-4-[4-((S)-4-Hydroxy-6-aza-spiro[2.5]oct-6-yl)-butyl]-2-methyl-3-oxo-piperazine-1-carboxylic acid (3-pyridin-3-yl-phenyl)-amide]
IC50: 293 nM

COC[C@H](CCN1CCC2(CC2)[C@H](O)C1)N1CCN(C(=O)Nc2ccc(Cl)c(Cl)c2)CCC1=O [Example 56, 4-[(S)-3-((S)-4-hydroxy-6-aza-spiro[2.5]oct-6-yl)-1-methoxymethyl-propyl]-5-oxo-[1,4]diazepane-1-carboxylic acid (3,4-dichloro-phenyl)-amide]
IC50: 2 nM

C[C@H]1C(=O)N([C@@H](CCN2CCCCC2)COC(=O)Nc2ccc(Cl)c(Cl)c2)CCN1C(=O)Nc1ccc(Cl)c(Cl)c1 [Example 86, (3,4-Dichloro-phenyl)-carbamic acid (S)-2-[(S)-4-(3,4-dichloro-phenylcarbamoyl)-3-methyl-2-oxo-piperazin-1-yl]-4-piperidin-1-yl-butyl ester]
IC50: 192 nM

C[C@H]1C(=O)N([C@@H](CCN2CCC3(CC3)[C@H](O)C2)C(=O)N(C)C)CCN1C(=O)Nc1cccc(Cl)c1 [Example 125, (S)-4-[(S)-1-Dimethylcarbamoyl-3-((S)-4-hydroxy-6-aza-spiro[2.5]oct-6-yl)-propyl]-2-methyl-3-oxo-piperazine-1-carboxylic acid (3-chloro-phenyl)-amide]
IC50: 16 nM

C[C@H]1C[C@H](O)CN(CCCN2CCN(C(=O)Nc3ccc(Cl)c(Cl)c3)[C@@H](C)C2=O)C1 [Example 46, (S)-4-[3-((3S,5S)-3-Hydroxy-5-methyl-piperidin-1-yl)-propyl]-2-methyl-3-oxo-piperazine-1-carboxylic acid (3,4-dichloro-phenyl)-amide]
IC50: 7 nM

O=C(Nc1ccc(Cl)c(Cl)c1)N1CCN(CCCN2CCCCC2)S(=O)(=O)CC1 [Example 21, 1,1-Dioxo-2-(3-piperidin-1-yl-propyl)-[1,2,5]thiadiazepane-5-carboxylic acid (3,4-dichloro-phenyl)-amide]
IC50: 370 nM

C[C@H]1C(=O)N(CCCCN2CCC3(CC3)[C@H](O)C2)CCN1C(=S)Oc1ccc2ccccc2c1 [Example 92, (S)-4-[4-((S)-4-Hydroxy-6-aza-spiro[2.5]oct-6-yl)-butyl]-2-methyl-3-oxo-piperazine-1-carbothioic acid O-naphthalen-2-yl ester]
IC50: 624 nM

O=C(Oc1ccc(Cl)c(Cl)c1)N1CCC(=O)N(C(CO)CCN2CCC3(CC3)[C@H](O)C2)CC1 (stereo partly drawn) [Example 9, (R,S)-4-[3-((S)-4-Hydroxy-6-aza-spiro[2.5]oct-6-yl)-1-hydroxymethyl-propyl]-5-oxo-[1,4]diazepane-1-carboxylic acid 3,4-dichloro-phenyl ester]
IC50: 420 nM

CC(=O)OC[C@H](CCN1CCC2(CC2)[C@H](O)C1)N1CCN(C(=O)Nc2cccc(Cl)c2)[C@@H](C)C1=O [Example 109, Acetic acid (S)-2-[(S)-4-(3-chloro-phenylcarbamoyl)-3-methyl-2-oxo-piperazin-1-yl]-4-((S)-4-hydroxy-6-aza-spiro[2.5]oct-6-yl)-butyl ester]
IC50: 10 nM

C[C@H]1C(=O)N([C@@H](CCN2CCC3(CC3)[C@H](O)C2)C(=O)N(C)C)CCN1C(=O)Nc1ccc(Cl)c(Cl)c1 [Example 124, (S)-4-[(S)-1-Dimethylcarbamoyl-3-((S)-4-hydroxy-6-aza-spiro[2.5]oct-6-yl)-propyl]-2-methyl-3-oxo-piperazine-1-carboxylic acid (3,4-dichloro-phenyl)-amide]
IC50: 4 nM

COC(=O)OC[C@H](CCN1CCC2(CC2)[C@H](O)C1)N1CCN(C(=O)Nc2ccc(Cl)c(Cl)c2)[C@@H](C)C1=O [Example 112, Carbonic acid (S)-2-[(S)-4-(3,4-dichloro-phenylcarbamoyl)-3-methyl-2-oxo-piperazin-1-yl]-4-((S)-4-hydroxy-6-aza-spiro[2.5]oct-6-yl)-butyl ester methyl ester]
IC50: 2 nM

O=C(Nc1ccc(Cl)c(Cl)c1)N1CCC(=O)N([C@H](CO)CCN2CCC3(CC3)[C@H](O)C2)CC1 [Example 53, 4-[(S)-3-((S)-4-Hydroxy-6-aza-spiro[2.5]oct-6-yl)-1-hydroxymethyl-propyl]-5-oxo-[1,4]diazepane-1-carboxylic acid (3,4-dichloro-phenyl)-amide]
IC50: 1 nM

C[C@H]1C(=O)N(CCN2CCC3(CC3)[C@H](O)C2)CCN1C(=O)Nc1ccc(Cl)c(Cl)c1 [Example 104, (S)-4-[2-((S)-4-Hydroxy-6-aza-spiro[2.5]oct-6-yl)-ethyl]-2-methyl-3-oxo-piperazine-1-carboxylic acid (3,4-dichloro-phenyl)-amide]
IC50: 382 nM

CC(C)C(=O)OC[C@H](CCN1CCC2(CC2)[C@H](O)C1)N1CCN(C(=O)Nc2ccc(Cl)c(Cl)c2)[C@@H](C)C1=O [Example 115, Isobutyric acid (S)-2-[(S)-4-(3,4-dichloro-phenylcarbamoyl)-3-methyl-2-oxo-piperazin-1-yl]-4-((S)-4-hydroxy-6-aza-spiro[2.5]oct-6-yl)-butyl ester]
IC50: 10 nM

O=C1CCN(C(=O)Nc2ccc(Cl)c(Cl)c2)CCN1CCCN1CCCCC1 [Example 11, 5-Oxo-4-(3-piperidin-1-yl-propyl)-[1,4]diazepane-1-carboxylic acid (3,4-dichloro-phenyl)-amide]
IC50: 980 nM

CC(C)OC(=O)OC[C@H](CCN1CCC2(CC2)[C@H](O)C1)N1CCN(C(=O)Nc2ccc(Cl)c(Cl)c2)[C@@H](C)C1=O [Example 113, Carbonic acid (S)-2-[(S)-4-(3,4-dichloro-phenylcarbamoyl)-3-methyl-2-oxo-piperazin-1-yl]-4-((S)-4-hydroxy-6-aza-spiro[2.5]oct-6-yl)-butyl ester isopropyl ester]
IC50: 1 nM

C[C@H]1C(=O)N([C@@H](CCN2CCC3(CC3)[C@H](O)C2)COC(=O)C(C)(C)C)CCN1C(=O)Nc1ccc(Cl)c(Cl)c1 [Example 114, 2,2-Dimethyl-propionic acid (S)-2-[(S)-4-(3,4-dichloro-phenylcarbamoyl)-3-methyl-2-oxo-piperazin-1-yl]-4-((S)-4-hydroxy-6-aza-spiro[2.5]oct-6-yl)-butyl ester]
IC50: 6 nM

COC[C@H](CCN1CCC2(CC2)[C@H](O)C1)N1CCN(C(=O)Nc2cccc(Cl)c2)[C@H](C)C1=O [Example 85, (R)-4-[(S)-3-((S)-4-Hydroxy-6-aza-spiro[2.5]oct-6-yl)-1-methoxymethyl-propyl]-2-methyl-3-oxo-piperazine-1-carboxylic acid (3-chloro-phenyl)-amide]
IC50: 180 nM
